Assay results as given in PubChem BioAssay AID1963982 (Molecular Pharmacology Branch, DTP, NCI, 2024).
Several values for one entry are separate records, joined by “and”; a condition that tells them apart may be missing. Identical values can stand only once.

Test system: 313798-341-R-J2-PDC spheroids, viability
Assay: Anticancer human tumor 313798-341-R-J2-PDC patient-derived cervical squamous cell carcinoma cell line growth inhibition [PI3K]
Conditions: spheroids with HUVEC and MSC; for viability, T/C: stronger effect = lower value; active = viability on the fitted dose curve at most 10% of control; inactive = the rest
Source text: Combinatorial screen of targeted agents with the PI3K inhibitors inavolisib, alpelisib, duvelisib, and copanlisib in multi-cell type tumor spheroids
A high-throughput screen of multi-cell type tumor spheroids was designed to identify active combinations of targeted small molecules and PI3K pathway inhibitors. Complex spheroids include a stromal component modeled by human endothelial cells (HUVEC) and fibroblasts modeled by human mesenchymal stem cells (MSCs). The concentration ranges selected for each drug and investigational agent were based upon clinically achievable concentrations if the clinical Cmax of the agent was known.
Compounds. The drugs and investigational agents: inavolisib (NSC800729), alpelisib (NSC765974), duvelisib (NSC772469), copanlisib (NSC816437), ipatasertib (NSC767898), afuresertib (NSC778305), talazoparib (NSC767125), sapanisertib (NSC764658), selumetinib (NSC741078), tovorafenib (DAY101, NSC766906), vemurafenib (NSC761431), ravoxertinib (NSC781343), sotorasib (NSC818433), MRTX1133 (NSC 836407), abemaciclib (NSC 768073), palbociclib (NSC758247), venetoclax (NSC 766270), SY5609 (NSC837396), enzalutamide (NSC755605), and darolutamide (NSC825331), were obtained from the National Cancer Institute (NCI) Developmental Therapeutics Program Chemical Repository. The FDA-approved anticancer drug set is available from the NCI Developmental Therapeutics Program. […] The stock solutions were prepared in dimethyl sulfoxide (DMSO, Sigma-Aldrich, St. Louis, MO, cat. D2650) at 800-fold the tested concentration and stored at -70 degrees C prior to their use. All drugs and investigational agents were tested over a range starting from a high concentration at or near the clinical Cmax and decreasing in half-log increments. If the clinical Cmax for an agent had not been determined, the highest concentration tested was 10 microM.
Cell Culture. All cells were maintained in an incubator at 37 degrees C and 5% CO2 with 95% humidity. The PDC lines were cultured according to standard operating procedures established by the NCI PDMR (https://pdmr.cancer.gov/sops/default.htm). All PDCs were thawed and cultured in Matrigel-coated flasks prepared with a working solution of 1X Ham's F-12 nutrient mix, without supplementation (Invitrogen, Waltham, MA, cat. 11765054), 100 U/mL penicillin-streptomycin (Invitrogen, cat. 15140122), and 2.5% Matrigel (Corning Inc., Corning, NY, cat. 354248) for the first three passages. The 354836-022-R-J1-PDC, 475296-252-R-J1-PDC, and 997726-040-R-J2-PDC lines were cultured in 6A media, which includes advanced DMEM/F-12 (Thermo Fisher Scientific, cat. 12634028), 10 mM HEPES (Thermo Fisher Scientific, cat. 15630080), 1X GlutaMAX supplement (Thermo Fisher Scientific, cat. 35050061), 0.1 mg/mL primocin (InvivoGen, San Diego, CA, cat. ant-pm-2), 10% defined fetal bovine serum, heat inactivated (HyClone Laboratories Inc., Logan, UT, cat. SH30070.03HI), 50% L-WRN conditioned media (ATCC, cat. CRL-3276), 1.25 mM N-Acetyl-L-cysteine (Sigma-Aldrich, cat. A9165), 10 mM nicotinamide (Sigma-Aldrich, cat. N0636), 1X B-27 supplement (Thermo Fisher Scientific, cat. 17504044), 1X N-2 supplement (Thermo Fisher Scientific, cat. 17502048), and 10 microM Y-27632 dihydrochloride (Tocris Bioscience, Bristol, United Kingdom, cat. 1254). The 624824-186-R-J2-PDC line was cultured in 6C/Colon 1B media, which includes all 6A media components plus 50 ng/mL human EGF recombinant protein (Thermo Fisher Scientific, cat. PHG0311). […]
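Note: spheroids exposed to compounds for seven days.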

CNC(=O)c1ccc(N2C(=S)N(c3ccc(C#N)c(C(F)(F)F)c3)C(=O)C2(C)C)cc1F + COc1c(OCCCN2CCOCC2)ccc2c3n(c(=NC(=O)c4cnc(N)nc4)nc12)CCN3
inactive: viability, T/C (second compound 0.00316 µM, first compound 0.0316 µM) 98.3% | viability, T/C (second compound 0.00316 µM, first compound 0.1 µM) 117% | viability, T/C (second compound 0.00316 µM, first compound 0.316 µM) 102% | viability, T/C (second compound 0.00316 µM, first compound 1 µM) 112% | viability, T/C (second compound 0.00316 µM, first compound 3.16 µM) 99.8% | viability, T/C (second compound 0.00316 µM, first compound 10 µM) 87.1% | viability, T/C (second compound 0.01 µM, first compound 0.0316 µM) 102% | viability, T/C (second compound 0.01 µM, first compound 0.1 µM) 100% | viability, T/C (second compound 0.01 µM, first compound 0.316 µM) 97.3% | viability, T/C (second compound 0.01 µM, first compound 1 µM) 115% | viability, T/C (second compound 0.01 µM, first compound 3.16 µM) 94.7% | viability, T/C (second compound 0.01 µM, first compound 10 µM) 96.7% | viability, T/C (second compound 0.0316 µM, first compound 0.0316 µM) 73.3% | viability, T/C (second compound 0.0316 µM, first compound 0.1 µM) 79.2% | viability, T/C (second compound 0.0316 µM, first compound 0.316 µM) 73.2% | viability, T/C (second compound 0.0316 µM, first compound 1 µM) 71.3% | viability, T/C (second compound 0.0316 µM, first compound 3.16 µM) 74.1% | viability, T/C (second compound 0.0316 µM, first compound 10 µM) 62.8% | viability, T/C (second compound 0.1 µM, first compound 0.0316 µM) 37.3% | viability, T/C (second compound 0.1 µM, first compound 0.1 µM) 42.9% | viability, T/C (second compound 0.1 µM, first compound 0.316 µM) 39.7% | viability, T/C (second compound 0.1 µM, first compound 1 µM) 40.8% | viability, T/C (second compound 0.1 µM, first compound 3.16 µM) 34.9% | viability, T/C (second compound 0.1 µM, first compound 10 µM) 31.8% | viability, T/C (second compound 0.316 µM, first compound 0.0316 µM) 15.5% | viability, T/C (second compound 0.316 µM, first compound 0.1 µM) 16.6% | viability, T/C (second compound 0.316 µM, first compound 0.316 µM) 13.9% | viability, T/C (second compound 0.316 µM, first compound 1 µM) 13.4% | viability, T/C (second compound 0.316 µM, first compound 3.16 µM) 14.8% | viability, T/C (second compound 0.316 µM, first compound 10 µM) 12.3% | viability, T/C (second compound 1 µM, first compound 0.0316 µM) 11.8%
> 10 µM: IC50 (curve of first compound, second compound 0.00316 µM) | IC50 (curve of first compound, second compound 0.01 µM) | IC50 (curve of first compound, second compound 0.0316 µM)
active: viability, T/C (second compound 1 µM, first compound 0.1 µM) 9.64% | viability, T/C (second compound 1 µM, first compound 0.316 µM) 11.3% | viability, T/C (second compound 1 µM, first compound 1 µM) 9.53% | viability, T/C (second compound 1 µM, first compound 3.16 µM) 9.76% | viability, T/C (second compound 1 µM, first compound 10 µM) 8.76%
< 0.0316 µM: IC50 (curve of first compound, second compound 0.1 µM) | IC50 (curve of first compound, second compound 0.316 µM) | IC50 (curve of first compound, second compound 1 µM)

CC(Cn1ccc(-c2ccc(C#N)c(Cl)c2)n1)NC(=O)c1cc(C(C)O)[nH]n1 (centres undefined)
> 10 µM: IC50 (curve of compound)
inactive: viability, T/C (compound 0.0316 µM) 98.1% and 107% and 99.7% | viability, T/C (compound 0.1 µM) 111% and 96.9% and 101% | viability, T/C (compound 0.316 µM) 101% and 107% and 113% | viability, T/C (compound 1 µM) 113% and 97.7% and 93.9% | viability, T/C (compound 3.16 µM) 99% and 105% and 104% | viability, T/C (compound 10 µM) 99.1% and 101% and 93.9%
